Measurements: patent US9522908B2, “Ezrin inhibitors and methods of making and using” (Georgetown University, priority 2010, dated 2016)

Legend:
[1] = test system: K12 cells; assay: Invasion of HUVEC monolayer by K12 cells (ECIS, xCELLigence); type: cell-based
Experimental: FIG. 3 illustrates NSC305787 and NSC668394 inhibit ezrin mediated invasion of OS cells. (A) Endogenous ezrin protein levels in K12 and K7M2 cells are shown. Equal loading is determined by blotting with an actin antibody. […] Error bars represent standard deviation from duplicate data points. The experiments were performed in duplicates. Cell index is a measurement parameter with no units. In this assay a decrease in cell index represents invasion of HUVEC layer by OS cells. It is measured according to the following formula: Cell index=((Rt−R0)/F where, Rt is resistance at time point t, R0 is background resistance (measured with media alone, no cells), and F is frequency at which measurement is taken (10 kHz).
The anti-invasive potential of NSC305787 and NSC668394 were evaluated by using electric cell impedance sensing (ECIS) on a Roche xCELLigence system (Roche, Indianapolis, Ind.). Briefly, HUVEC cells (25,000/well) were seeded in a 96-well plate in EGM-2 media (Lonza, Basel, CH). Following formation of a confluent HUVEC monolayer (app 32 hrs), EGM-2 media was aspirated and a layer of OS cells (10,000 cells/well) was added in DMEM media containing the compounds. This time point was accepted as 0 hr of treatment and invasion was monitored during the following 6 hrs by measuring changes in resistance at the cell-electrode interphase.

[2] = test system: zebrafish embryos; assay: Zebrafish embryo development assay; type: in vivo, Zebrafish (Danio rerio)
Experimental: Animals. Zebrafish (Danio rerio) were raised, maintained and crossed as described before (Westerfield, M. University of Oregon Press, Eugene. Or., 1993). Development of embryos was studied at 28° C. and staging was determined by morphological characteristics (Kimmel, C. B., et al., Dev. Dyn. 203, 253-310 (1995)).
A translation blocking anti-ezrin morpholino oligonucleotide (MO), described and validated by Link et al. (Link, V., et al., J. Cell Sci., 119, 2073-2083 (2006)), MO1, 5′-[…] (SEQ ID NO:1), was synthesized by Gene-Tools, LCC (Philomath, Oreg.). MOs were microinjected into one to four cell stage embryos.
Zebrafish embryos were arrayed, three per well, in 96-well plates. Compounds were added at 1-33 μM concentrations. Embryos were observed, and photographed, at 70% epiboly, 24-28 hours post fertilization (hpf) and 48 hpf.

OC(c1cc(C23CC4CC(CC(C4)C2)C3)nc2c(Cl)cc(Cl)cc12)C1CCCCN1 (stereo not shown) [NSC305787]
invasion of K12 cells ([1]; 1 μM): did not have any effect | invasion of K12 cells ([1]; 10 μM): did not have any effect | embryos with epiboly defects ([2]; 10 μM): 15% | embryos with epiboly defects ([2]; 20 μM): 100%
